Measured values reported in ChEMBL document CHEMBL1140269, “Amino-substituted heterocycles as isosteres of trans-cinnamides: design and synthesis of heterocyclic biaryl sulfides as potent antagonists of LFA-1/ICAM-1 binding” (Bioorg Med Chem Lett, 2005).
Several values for one entry are separate records, joined by “and”; a condition that tells them apart may be missing. Equal entries are not always repeated.

Tests used:
[1] = target: Intercellular adhesion molecule (ICAM-1), Integrin alpha-L/beta-2 (Homo sapiens, UniProt P05107+P20701); experiment: Inhibitory concentration against integrin LFA-1/ICAM-1 binding complex; type: protein-complex assay
Chain of Intercellular adhesion molecule (ICAM-1), Integrin alpha-L/beta-2 (P20701 whole entry): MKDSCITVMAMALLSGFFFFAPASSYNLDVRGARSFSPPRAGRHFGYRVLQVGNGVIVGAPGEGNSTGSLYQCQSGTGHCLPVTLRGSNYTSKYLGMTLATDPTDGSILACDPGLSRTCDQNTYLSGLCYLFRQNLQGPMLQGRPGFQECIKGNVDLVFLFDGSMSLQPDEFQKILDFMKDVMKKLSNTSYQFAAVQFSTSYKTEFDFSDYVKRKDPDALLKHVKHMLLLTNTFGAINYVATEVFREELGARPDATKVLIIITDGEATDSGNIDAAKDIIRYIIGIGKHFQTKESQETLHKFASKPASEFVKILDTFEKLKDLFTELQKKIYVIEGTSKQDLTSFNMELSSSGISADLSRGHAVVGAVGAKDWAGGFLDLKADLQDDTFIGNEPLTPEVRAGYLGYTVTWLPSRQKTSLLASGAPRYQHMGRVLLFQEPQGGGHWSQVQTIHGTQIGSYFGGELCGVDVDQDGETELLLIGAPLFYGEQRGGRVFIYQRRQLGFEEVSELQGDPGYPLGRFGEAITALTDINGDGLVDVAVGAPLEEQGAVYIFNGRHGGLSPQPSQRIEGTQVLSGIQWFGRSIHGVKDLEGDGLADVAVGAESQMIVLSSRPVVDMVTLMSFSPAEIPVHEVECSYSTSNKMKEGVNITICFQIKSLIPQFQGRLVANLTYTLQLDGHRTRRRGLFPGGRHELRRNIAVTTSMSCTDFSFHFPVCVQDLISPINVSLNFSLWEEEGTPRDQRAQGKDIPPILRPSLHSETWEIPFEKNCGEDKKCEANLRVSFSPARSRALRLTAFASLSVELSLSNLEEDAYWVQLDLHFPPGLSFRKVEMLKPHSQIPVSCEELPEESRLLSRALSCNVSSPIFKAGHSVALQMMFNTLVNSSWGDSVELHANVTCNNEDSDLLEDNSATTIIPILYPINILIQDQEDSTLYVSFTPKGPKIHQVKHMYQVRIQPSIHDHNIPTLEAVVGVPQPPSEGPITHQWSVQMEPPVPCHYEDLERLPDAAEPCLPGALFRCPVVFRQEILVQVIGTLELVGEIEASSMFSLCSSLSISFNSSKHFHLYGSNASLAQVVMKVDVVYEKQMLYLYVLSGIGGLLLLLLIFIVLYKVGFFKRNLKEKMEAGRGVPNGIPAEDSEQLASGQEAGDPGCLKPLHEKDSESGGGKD
Chain of Intercellular adhesion molecule (ICAM-1), Integrin alpha-L/beta-2 (P05362 whole entry, further chain): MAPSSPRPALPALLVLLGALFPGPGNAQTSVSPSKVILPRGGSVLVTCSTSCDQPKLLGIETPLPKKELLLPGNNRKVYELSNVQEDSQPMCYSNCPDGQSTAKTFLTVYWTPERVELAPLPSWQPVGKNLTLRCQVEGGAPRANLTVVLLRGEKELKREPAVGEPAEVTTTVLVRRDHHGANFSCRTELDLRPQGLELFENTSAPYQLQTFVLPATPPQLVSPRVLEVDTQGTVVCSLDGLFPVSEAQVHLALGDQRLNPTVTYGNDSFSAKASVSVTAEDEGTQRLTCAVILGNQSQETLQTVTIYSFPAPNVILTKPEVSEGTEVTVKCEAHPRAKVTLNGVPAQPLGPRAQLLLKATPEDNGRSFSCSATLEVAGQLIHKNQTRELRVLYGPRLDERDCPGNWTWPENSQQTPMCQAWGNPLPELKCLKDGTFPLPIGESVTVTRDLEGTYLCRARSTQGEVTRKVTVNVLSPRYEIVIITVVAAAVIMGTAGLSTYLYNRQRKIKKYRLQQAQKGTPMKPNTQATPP
Chain of Intercellular adhesion molecule (ICAM-1), Integrin alpha-L/beta-2 (P05107 whole entry): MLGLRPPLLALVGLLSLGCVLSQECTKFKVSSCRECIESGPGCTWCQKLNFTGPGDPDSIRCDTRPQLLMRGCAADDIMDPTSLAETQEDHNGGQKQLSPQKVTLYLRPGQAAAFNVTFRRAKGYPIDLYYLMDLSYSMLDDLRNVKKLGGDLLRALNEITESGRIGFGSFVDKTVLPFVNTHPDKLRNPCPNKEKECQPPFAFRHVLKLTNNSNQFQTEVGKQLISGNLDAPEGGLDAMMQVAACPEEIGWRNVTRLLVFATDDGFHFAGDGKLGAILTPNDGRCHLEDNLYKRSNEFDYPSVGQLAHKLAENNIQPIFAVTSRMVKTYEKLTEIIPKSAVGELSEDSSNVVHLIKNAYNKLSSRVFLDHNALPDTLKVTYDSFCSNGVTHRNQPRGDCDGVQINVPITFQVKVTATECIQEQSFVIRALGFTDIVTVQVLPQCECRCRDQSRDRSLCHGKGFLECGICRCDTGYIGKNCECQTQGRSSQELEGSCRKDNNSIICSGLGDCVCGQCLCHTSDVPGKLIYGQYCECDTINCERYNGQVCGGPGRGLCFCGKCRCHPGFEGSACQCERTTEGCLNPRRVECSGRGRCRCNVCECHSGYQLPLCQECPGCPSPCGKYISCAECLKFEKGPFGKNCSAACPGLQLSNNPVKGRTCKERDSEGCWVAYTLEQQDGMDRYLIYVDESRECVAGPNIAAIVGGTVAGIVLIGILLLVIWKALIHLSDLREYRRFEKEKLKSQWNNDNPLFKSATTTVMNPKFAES

[2] = target: Intercellular adhesion molecule (ICAM-1), Integrin alpha-L/beta-2 (Homo sapiens) (UniProt P20701+P05362+P05107); experiment: Inhibitory activity against ICAM-1/integrin LFA-1 binding complex at 1 uM concentration; type: protein-complex assay

SMILES | IC50 [1] | inhibition [2]
CC(C)c1ccccc1Sc1ccc(-c2ccnc(N3CCC(C(=O)O)CC3)c2)cc1C(F)(F)F | 42 nM and 50 nM | 
CC(C)c1ccccc1Sc1ccc(-c2ccnc(N3CCN(C=O)CC3)c2)cc1C(F)(F)F | 165 nM | 
CC(=O)N(C)[C@@H]1CCN(c2cc(-c3ccc(Sc4ccccc4C(C)C)c(C(F)(F)F)c3)ccn2)C1 | 112 nM | 
COc1ccccc1Sc1ccc(-c2ccnc(N3CCC(CCO)CC3)c2)cc1C(F)(F)F | 111 nM | 
COc1ccccc1Sc1ccc(-c2ccnc(N3CCC(O)CC3)c2)cc1C(F)(F)F | 128 nM | 
COc1ccccc1Sc1ccc(-c2ccnc(N3CC[C@@H](N(C)C(C)=O)C3)c2)cc1C(F)(F)F | 88 nM | 
CC(=O)NC1CCN(c2cc(-c3ccc(Sc4ccccc4C(C)C)c(C(F)(F)F)c3)ncn2)C1 (configuration not stated) | 220 nM | 
CC(C)c1ccccc1Sc1ccc(-c2csc(NCCN3CCOCC3)n2)cc1C(F)(F)F | 12000 nM | 
CCCN1CCN(c2cc(-c3ccc(Sc4ccccc4OC)c(C(F)(F)F)c3)ccn2)CC1 | 900 nM | 
O=C(O)C1CCCN(c2cc(-c3ccc(Sc4ccc5c(c4)OCCO5)c(C(F)(F)F)c3)ccn2)C1 (stereo in doubt; 18L) | 76 nM | 
CC(C)c1ccccc1Sc1ccc(-c2cc(N3CCN(c4ccccn4)CC3)ncn2)cc1C(F)(F)F | 1270 nM | 
CC(C)c1ccccc1Sc1ccc(-c2ccnc(N3CCC[C@H]3CO)c2)cc1C(F)(F)F (stereo in doubt) | 480 nM | 
CC(C)c1ccccc1Sc1ccc(-c2ccnc(N3C[C@H](O)C[C@H]3C(=O)O)c2)cc1C(F)(F)F | 90 nM | 
CC(=O)N1CCCN(c2cc(-c3ccc(Sc4ccc5c(c4)OCCO5)c(C(F)(F)F)c3)ccn2)CC1 | 365 nM | 
Cc1ccc(C)c(N2CCN(c3cc(-c4ccc(Sc5ccccc5C(C)C)c(C(F)(F)F)c4)ccn3)CC2)c1 |  | 0%
O=C(O)[C@@H]1CCCN1c1cc(-c2ccc(Sc3ccc4c(c3)OCCO4)c(C(F)(F)F)c2)ccn1 | 147 nM | 
CC(C)c1ccccc1Sc1ccc(-c2ccnc(N3CCN(c4ccccn4)CC3)c2)cc1C(F)(F)F |  | 40%
CCN1CCN(c2cc(-c3ccc(Sc4ccccc4C(C)C)c(C(F)(F)F)c3)ccn2)CC1 |  | 54%
CC(C)c1ccccc1Sc1ccc(-c2cc(N3CCC(CCO)CC3)ncn2)cc1C(F)(F)F | 230 nM | 
CC(C)c1ccccc1Sc1ccc(-c2ccnc(N3CCC(CO)CC3)c2)cc1C(F)(F)F | 160 nM | 
CC(C)c1ccccc1Sc1ccc(-c2cc(N3CCCC(C(N)=O)C3)ncn2)cc1C(F)(F)F (configuration not stated) | 340 nM | 
CC(=O)N[C@@H]1CCN(c2cc(-c3ccc(Sc4ccccc4C(C)C)c(C(F)(F)F)c3)ccn2)C1 | 62 nM | 

SMILES | IC50 [1] | inhibition [2]
CC(C)c1ccccc1Sc1ccc(-c2ccnc(N3CCCCCC3)c2)cc1C(F)(F)F |  | 34%
O=C(O)C1CCN(c2cc(-c3ccc(Sc4ccc5c(c4)OCCO5)c(C(F)(F)F)c3)ccn2)CC1 | 71 nM and 50 nM | 
CC(C)c1ccccc1Sc1ccc(-c2ccnc(N3CCN(C)CC3)c2)cc1C(F)(F)F |  | 58%
CC(=O)N[C@@H]1CCN(c2cc(-c3ccc(Sc4ccc5c(c4)OCCO5)c(C(F)(F)F)c3)ccn2)C1 | 112 nM | 
CC(C)c1ccccc1Sc1ccc(-c2ccnc(N3CCC(CCO)CC3)c2)cc1C(F)(F)F | 160 nM | 
COc1ccccc1Sc1ccc(-c2ccnc(N3CC[C@@H](O)C3)c2)cc1C(F)(F)F | 77 nM | 
OCC1CCN(c2cc(-c3ccc(Sc4ccc5c(c4)OCCO5)c(C(F)(F)F)c3)ccn2)CC1 | 390 nM | 
CC(C)c1ccccc1Sc1ccc(-c2cc(N3CCOCC3)ncn2)cc1C(F)(F)F | 80 nM and 320 nM | 
COc1ccccc1Sc1ccc(-c2ccnc(N3CCCC(C(=O)O)C3)c2)cc1C(F)(F)F (configuration not stated) | 122 nM | 
CC(C)c1ccccc1Sc1ccc(-c2cc(N3CCCC3CO)ncn2)cc1C(F)(F)F (stereo in doubt) | 480 nM | 
CCN(C(C)=O)C1CCN(c2cc(-c3ccc(Sc4ccccc4C(C)C)c(C(F)(F)F)c3)ncn2)C1 (configuration not stated) | 300 nM | 
CC(C)c1ccccc1Sc1ccc(-c2ccnc(N3CCC[C@H]3C(=O)O)c2)cc1C(F)(F)F | 26 nM | 
COc1ccccc1Sc1ccc(-c2ccnc(N3CCC(CO)CC3)c2)cc1C(F)(F)F | 80 nM | 
CCOC(=O)N1CCN(c2cc(-c3ccc(Sc4ccccc4C(C)C)c(C(F)(F)F)c3)ncn2)CC1 | 470 nM | 
COc1ccccc1Sc1ccc(-c2ccnc(N3CCC(C(N)=O)CC3)c2)cc1C(F)(F)F | 140 nM | 
CC(=O)N1CCN(c2cc(-c3ccc(Sc4ccccc4C(C)C)c(C(F)(F)F)c3)ncn2)CC1 | 60 nM and 200 nM | 
COc1ccccc1Sc1ccc(-c2ccnc(N3CCC(C(=O)O)CC3)c2)cc1C(F)(F)F | 113 nM | 
NC(=O)C1CCN(c2cc(-c3ccc(Sc4ccc5c(c4)OCCO5)c(C(F)(F)F)c3)ccn2)CC1 | 140 nM | 
CC(C)c1ccccc1Sc1ccc(-c2ccnc(N3CCC(O)C3)c2)cc1C(F)(F)F (configuration not stated) | 93 nM | 
OC1CCN(c2cc(-c3ccc(Sc4ccc5c(c4)OCCO5)c(C(F)(F)F)c3)ccn2)CC1 | 300 nM | 
CC(C)c1ccccc1Sc1ccc(-c2ccnc(N3CCCC(C)(C)C3)c2)cc1C(F)(F)F |  | 22%
OCCC1CCN(c2cc(-c3ccc(Sc4ccc5c(c4)OCCO5)c(C(F)(F)F)c3)ccn2)CC1 | 132 nM | 

SMILES | IC50 [1] | inhibition [2]
CC(C)c1ccccc1Sc1ccc(-c2cc(N3CCCC3CO)ncn2)cc1C(F)(F)F (stereo in doubt; 10w) | 680 nM | 
CC(C)c1ccccc1Sc1ccc(-c2ccnc(N3CCC(c4nnn[nH]4)CC3)c2)cc1C(F)(F)F | 51 nM | 
CC(C)c1ccccc1Sc1ccc(-c2ccnc(N3CCCC3)c2)cc1C(F)(F)F | 250 nM | 
COc1ccccc1Sc1ccc(-c2ccnc(N3CC[C@@H](NC(C)=O)C3)c2)cc1C(F)(F)F | 88 nM | 
CCN(C)c1cc(-c2ccc(Sc3ccccc3C(C)C)c(C(F)(F)F)c2)ncn1 | 680 nM | 
O=C(O)C1CCCN(c2cc(-c3ccc(Sc4ccc5c(c4)OCCO5)c(C(F)(F)F)c3)ccn2)C1 (stereo in doubt) | 30 nM | 
CC(=O)N(C)[C@@H]1CCN(c2cc(-c3ccc(Sc4ccc5c(c4)OCCO5)c(C(F)(F)F)c3)ccn2)C1 | 168 nM | 
CC(C)c1ccccc1Sc1ccc(-c2ccnc(N3CCCC(C(=O)O)C3)c2)cc1C(F)(F)F (stereo in doubt; 16k) | 43 nM | 
CC(C)c1ccccc1Sc1ccc(-c2coc(N3CCCCC3)n2)cc1C(F)(F)F | 15000 nM | 
CC(=O)N1CCN(c2cc(-c3ccc(Sc4ccc5c(c4)OCCO5)c(C(F)(F)F)c3)ccn2)CC1 | 131 nM and 60 nM | 
CC(C)c1ccccc1Sc1ccc(-c2cc(N3CCCC(CO)C3)ncn2)cc1C(F)(F)F (configuration not stated) | 230 nM | 
OC[C@H]1CCCN1c1cc(-c2ccc(Sc3ccc4c(c3)OCCO4)c(C(F)(F)F)c2)ccn1 | 510 nM | 
COc1ccccc1Sc1ccc(-c2ccnc(N3CCN(C=O)CC3)c2)cc1C(F)(F)F | 186 nM | 
CCCN1CCN(c2cc(-c3ccc(Sc4ccc5c(c4)OCCO5)c(C(F)(F)F)c3)ccn2)CC1 | 747 nM | 
O=C(O)[C@@H]1C[C@@H](O)CN1c1cc(-c2ccc(Sc3ccc4c(c3)OCCO4)c(C(F)(F)F)c2)ccn1 | 192 nM | 
CC(C)c1ccccc1Sc1ccc(-c2cc(NCCCn3ccnc3)ncn2)cc1C(F)(F)F | 760 nM | 
CC(C)c1ccccc1Sc1ccc(-c2cc(N(C)C(C)C)ncn2)cc1C(F)(F)F | 740 nM | 
CC(C)c1ccccc1Sc1ccc(-c2ccnc(N3CCCCC3)c2)cc1C(F)(F)F | 1000 nM | 
CC(C)c1ccccc1Sc1ccc(-c2cc(N3CCC(c4nn[nH]n4)CC3)ncn2)cc1C(F)(F)F | 108 nM | 
CC(C)c1ccccc1Sc1ccc(-c2ccnc(N3CCCC(C(=O)O)C3)c2)cc1C(F)(F)F (stereo in doubt) | 30 nM | 
COCCCNc1nc(-c2ccc(Sc3ccccc3C(C)C)c(C(F)(F)F)c2)cs1 | 10500 nM | 
CC(=O)N1CCN(C(=O)/C=C/c2ccc(Sc3ccccc3C(C)C)c(C(F)(F)F)c2)CC1 | 60 nM | 

SMILES | IC50 [1] | inhibition [2]
CC(C)c1ccccc1Sc1ccc(-c2cc(N3CCC(NC(=O)OC(C)(C)C)C3)ncn2)cc1C(F)(F)F (configuration not stated) | 550 nM | 
COc1ccccc1Sc1ccc(-c2ccnc(N3CCN(C(C)=O)CC3)c2)cc1C(F)(F)F | 121 nM | 
CC(C)c1ccccc1Sc1ccc(-c2coc(N3CCOCC3)n2)cc1C(F)(F)F | 3600 nM | 
CC(C)c1ccccc1Sc1ccc(-c2ccnc(N3CCC(O)CC3)c2)cc1C(F)(F)F | 76 nM | 
COc1ccccc1Sc1ccc(-c2ccnc(N3CCC[C@H]3C(=O)O)c2)cc1C(F)(F)F | 80 nM | 
CC1CN(c2cc(-c3ccc(Sc4ccccc4C(C)C)c(C(F)(F)F)c3)ncn2)CC(C)O1 (configuration not stated) | 490 nM | 
COc1ccccc1Sc1ccc(-c2ccnc(N3CCCN(C(C)=O)CC3)c2)cc1C(F)(F)F | 168 nM | 
O[C@@H]1CCN(c2cc(-c3ccc(Sc4ccc5c(c4)OCCO5)c(C(F)(F)F)c3)ccn2)C1 | 126 nM | 
CC(C)c1ccccc1Sc1ccc(-c2ccnc(N3CCC[C@H]3CO)c2)cc1C(F)(F)F (stereo in doubt; 16x) | 264 nM | 
CC(C)c1ccccc1Sc1ccc(-c2cc(N3CC[C@@H](O)C3)ncn2)cc1C(F)(F)F | 158 nM | 
O=CN1CCN(c2cc(-c3ccc(Sc4ccc5c(c4)OCCO5)c(C(F)(F)F)c3)ccn2)CC1 | 351 nM | 
COc1ccccc1Sc1ccc(-c2ccnc(N3CCC[C@@H]3CO)c2)cc1C(F)(F)F | 331 nM | 
CC(C)c1ccccc1Sc1ccc(-c2cc(N3CCC(C(=O)O)CC3)ncn2)cc1C(F)(F)F | 120 nM | 
CC(C)c1ccccc1Sc1ccc(-c2cc(N3CCC(O)CC3)ncn2)cc1C(F)(F)F | 228 nM | 
CCN(CC)C(=O)C1CCCN(c2cc(-c3ccc(Sc4ccccc4C(C)C)c(C(F)(F)F)c3)ncn2)C1 (configuration not stated) | 620 nM | 
CC(C)c1ccccc1Sc1ccc(-c2ccnc(N3CCC(C(N)=O)CC3)c2)cc1C(F)(F)F | 73 nM | 
COc1ccccc1Sc1ccc(-c2ccnc(N3C[C@H](O)C[C@H]3C(=O)O)c2)cc1C(F)(F)F | 214 nM | 
CCOC(=O)CN1CCN(c2cc(-c3ccc(Sc4ccccc4C(C)C)c(C(F)(F)F)c3)ncn2)CC1 | 420 nM | 
CC(C)c1ccccc1Sc1ccc(-c2ccnc(N3CC[C@@H](O)[C@H](C(=O)O)C3)c2)cc1C(F)(F)F | 43 nM | 
CC(C)c1ccccc1Sc1ccc(-c2cc(N3CCC(C(N)=O)CC3)ncn2)cc1C(F)(F)F | 230 nM | 
CC(=O)N1CCN(c2cc(-c3ccc(Sc4ccccc4C(C)C)c(C(F)(F)F)c3)ccn2)CC1 | 93 nM and 60 nM | 
